Results on ten molecules are retold here after PubChem BioAssay (NCI).

What all share (test): NCI-60 cell line screen, 48 h
Test [1] relates to IGROV1 ovarian.
Test [2] concerns A549 NSCLC.
The subject of test [3] is UACC-62 melanoma.
The subject of test [4] is MOLT-4 leukemia.
The test system of test [5] is NCI-H522 lung.
Test [6] concerns SNB-75 CNS.
Test [7] deals with MDA-MB-435.
The test system of test [8] is OVCAR-5 ovarian.
Test [9] has as its system SW-620 colon.
Test [10] concerns MDA-N.
Test [11] deals with MALME-3M melanoma.
In test [12] the test system is ACHN renal.
In test [13] the test system is EKVX NSCLC.
Test [14] has as its system RPMI-8226 leukemia.

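Step 1: Grow cells in 96-well plates. Step 2: Expose to compound for 48 hours at 5 concentrations. Step 3: Interpolate endpoints linearly; if unreached, use highest concentration. The concentration for full growth arrest is given as TGI.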

On to `c1ccc([P+](c2ccccc2)(c2ccccc2)C2c3ccccc3-c3ccccc32)cc1`, for which the TGI in test [1] came to 13.6 µM; in test [2], 14.3 µM; in [3], 5.02 µM; in test [4], 7.12 µM; in test [5], 6.06 µM; in test [6], 7.06 µM. The TGI was found to be 3.18 µM in [7]; 42 µM in test [8]; 16.2 µM in [9]; 7.84 µM in test [10]; 15.1 µM in test [11]; 7.79 µM in test [12].

As to `O=Nc1c(O)cc(Nc2cccnc2)c2ccccc12`, the TGI in test [1] is 49.9 µM; in test [2] it was greater than 100 µM; in [3], 55.6 µM; in test [4], 41.6 µM; in [5], 28 µM; in [6], greater than 100 µM. Besides, the TGI in test [7] was greater than 100 µM; in test [8] it was greater than 100 µM; in test [9], 45.5 µM; in test [10] it was 76.6 µM; in test [13] it was greater than 100 µM; in test [14], 85 µM. This molecule also showed a TGI in [12] greater than 100 µM.

Consider `O=c1oc2ccc([N+](=O)[O-])cc2cc1Br`, for which the TGI in test [1], in test [2], in test [3], in test [4], in test [5] and in [7] was greater than 100 µM each time. The TGI in test [8], in [9], in test [10], in test [11], in [13] and in [14] was greater than 100 µM throughout. In test [12], this molecule showed a TGI greater than 100 µM.

With `CN(C)c1ccc(/C=C/c2cc(-c3ccccc3)[n+](C)n2-c2ccccc2)cc1`, the TGI is 3.76 µM in test [1]; 23.2 µM in [2]; greater than 39.7 µM in test [3]; 3.41 µM in test [4]; 0.318 µM in [5]; 2.37 µM in test [6]. The TGI in test [7] was 2.98 µM; in test [8] it was 30.8 µM; in test [9], greater than 35.1 µM; in test [10] it was 13.6 µM; in test [13], 10.8 µM; in test [14], greater than 100 µM. Also, the TGI in test [12] stood at 16 µM.

For `COc1ccc(/C(=N\Nc2ccccn2)c2ccccn2)cc1`, the TGI is 7.89 µM in [1]; 11.1 µM in test [2]; 6.44 µM in [3]; greater than 58.3 µM in test [4]; 14.8 µM in test [5]; 8.01 µM in test [6]. The TGI is 22.3 µM in test [7]; 98.9 µM in [8]; 30.4 µM in test [9]; greater than 100 µM in test [10]; 13.6 µM in [13]; 3.85 µM in [14]. In [12], this molecule displayed a TGI of 2.81 µM.

On to `CCCCc1ccc(C#CC#Cc2ccc(CCCC)s2)s1`, for which the TGI in test [1], in [3], in test [4], in [5], in [6] and in [7] was greater than 100 µM in each case. For the same molecule, the TGI in test [8], in [9], in test [10], in test [13], in [14] and in [12] was greater than 100 µM each time.

With `COC(=O)/C(C#N)=C(\N)c1c(C)c2ccccc2oc1=N`, the TGI in test [1], in test [2], in test [3], in test [4], in test [5] and in test [6] was greater than 100 µM throughout. In addition, the TGI in test [7], in [8], in [9], in test [10], in [13] and in test [14] was greater than 100 µM each time.

Turning to `Cc1nnc(Sc2nc(C#N)c(C#N)nc2Sc2nnc(C)s2)s1`, the TGI in test [1] is 21.3 µM; in test [2] it was 56.2 µM; in test [3], 34.9 µM; in test [4], 5.47 µM; in [6], greater than 82.3 µM; in [7] it was greater than 84.7 µM. The TGI in test [8] was 46.5 µM; in test [10], 49.7 µM; in [11], 4.48 µM; in test [13], greater than 73.6 µM; in [12], 8.08 µM.

Consider `S=C=NC1CCC(c2cc3ccccc3s2)(N2CCCCC2)CC1` (stereo not drawn), for which the TGI stood at 11.1 µM in test [2]; 3.6 µM in test [3]; 1.01 µM in test [4]; 3.23 µM in test [5]; 4.2 µM in test [6]; 3.19 µM in test [7]. Besides, the TGI in [8] worked out at 3.7 µM; in [10], 3.73 µM; in [11], 3.04 µM; in test [13], 4.69 µM; in test [12], 3.34 µM.

Turning to `CC(=O)/C(C=Nc1c(C)n(C)n(C)c1=O)=C(/O)c1ccccc1`, the TGI in [1], in test [2], in [3], in [4], in [5] and in test [7] was greater than 50 µM in each case. In addition, the TGI in test [8], in test [9], in [10], in [11], in test [13] and in test [14] was greater than 50 µM throughout. In addition, the TGI in test [12] is greater than 50 µM.
